Reference: patent publication US12251449B2, “Synthetic multidomain peptide biomaterials that inhibit inducible nitric oxide synthase” (William Marsh Rice University, priority 2019, dated 2025)
Entries after “also recorded” stand apart in the source; their conditions may differ.

Key:
MOC1 tumors = experiment: MOC orthotopic murine model of oral cancer (Example 9); settings: established 4-5 mm MOC1 tumors
Experimental: MOC orthotopic murine model of oral cancer. MOC1 tumors were established by injecting 2×10^6 cells (70%:30% cells: Matrigel®Matrix) into the maxillary vestibule of the left oral cavity in C57BL/6J mice. […] Tumor growth was monitored by tumor size measurements (in diameter) taken at least two times per week using digital calipers to measure the longest dimension (single dimension). Data was then analyzed for Kaplan-Meier survival and tumor growth curves. […] Excessive tumor burden, defined as tumor diameter reaching 12 mm, tumor ulceration, or a weight loss of greater than 20% were factors that were considered for all endpoints in tumor growth and survival data.
Statistical methods. Statistical analyses were performed using Prism 7.0 (GraphPad, San Diego, CA). Statistical analyses for Kaplan-Meier survival curves were performed using the Log-rank/Mantel-Cox test. Statistical significance for tumor growth curves was determined by a two-way ANOVA test followed by selected comparison using Tukey's multiple comparison tests with multiple comparison correction. All p values were two-sided and p values less than 0.05 were considered significant.

RAW 264.7 cells = experiment: Live-dead viability of RAW 264.7 cells on MDP hydrogels; assay type: cell-based, mouse; settings: RAW macrophages on 1 wt. % hydrogel, one to three days
Experimental: Cell culture. For in vitro experiments, mouse RAW 264.7 cells (ATCC TIB-71) were grown in DMEM media supplemented with 10% Heat-Inactivated Fetal Bovine Serum (HI-FBS), L-glutamine, sodium pyruvate, and 1% penicillin-streptomycin. Cells were cultured at 37° C. with 5% CO2 and subcultured using scraping.
For 2-D culture live-dead viability studies, peptide hydrogels were pipetted into 0.4 cm^2 wells of Lab-Tek 16 well glass chamber slides (Thermo Fischer, Rochester, NY). Gels were pipetted to produce 70 μL pucks with a thickness of 1.75 mm. The gels were carefully pipetted into the bottom of each well and tapped before shear recovery to create flat gel profiles. After pipetting, the samples were allowed to shear recover for 5-10 min before adding 200 μL cell media and 10,000 RAW 264.7 cells. For each experiment time point (days 1 and 3) separate slides with duplicate gels were created. The cell media was changed every 2 days, taking care to not disturb or dislodge the gel material.
At each desired time point the following procedure was used to stain the cells for live-dead analysis. Live-dead staining solution was prepared in DPBS (Thermo Fisher Scientific, Rockford, IL) with 2 μM Calcein AM (Life Technologies), 4 μM Ethidium homodimer (Life Technologies), and 5 μg/mL Hoechst 33342 (BD Biosciences, San Jose, CA). Cell media was removed from the top of the hydrogel samples, which were then washed with PBS. Samples were then stained with 100 μL of prepared solution by incubating at 37° C. with 5% CO2 for 60 min while protected from light. After staining, the gels were removed from the glass chamber slides and placed in PBS before immediately imaging by confocal. Gels were analyzed by z-stack imaging using a Nikon A1 Confocal Microscope with a 40× water objective (405 nm blue channel laser, 488 nm green channel laser, 561 nm red channel laser). Image processing was done using NIS Elements, and Imaris Cell Counting software was used to quantify live-dead percentages.

iNOS [1] = molecular target: T1, iNOS (Mus musculus, UniProt P29477); experiment: iNOS knockdown in vitro Greiss assay; assay type: cell-based; settings: for iNOS inhibition (in words): stimulated RAW macrophages cultured on the hydrogel
T1 construct: endogenous in cells; host or cells: RAW 264.7 murine macrophages stimulated with LPS and IFN-gamma
T1 sequence (P29477 1-1144): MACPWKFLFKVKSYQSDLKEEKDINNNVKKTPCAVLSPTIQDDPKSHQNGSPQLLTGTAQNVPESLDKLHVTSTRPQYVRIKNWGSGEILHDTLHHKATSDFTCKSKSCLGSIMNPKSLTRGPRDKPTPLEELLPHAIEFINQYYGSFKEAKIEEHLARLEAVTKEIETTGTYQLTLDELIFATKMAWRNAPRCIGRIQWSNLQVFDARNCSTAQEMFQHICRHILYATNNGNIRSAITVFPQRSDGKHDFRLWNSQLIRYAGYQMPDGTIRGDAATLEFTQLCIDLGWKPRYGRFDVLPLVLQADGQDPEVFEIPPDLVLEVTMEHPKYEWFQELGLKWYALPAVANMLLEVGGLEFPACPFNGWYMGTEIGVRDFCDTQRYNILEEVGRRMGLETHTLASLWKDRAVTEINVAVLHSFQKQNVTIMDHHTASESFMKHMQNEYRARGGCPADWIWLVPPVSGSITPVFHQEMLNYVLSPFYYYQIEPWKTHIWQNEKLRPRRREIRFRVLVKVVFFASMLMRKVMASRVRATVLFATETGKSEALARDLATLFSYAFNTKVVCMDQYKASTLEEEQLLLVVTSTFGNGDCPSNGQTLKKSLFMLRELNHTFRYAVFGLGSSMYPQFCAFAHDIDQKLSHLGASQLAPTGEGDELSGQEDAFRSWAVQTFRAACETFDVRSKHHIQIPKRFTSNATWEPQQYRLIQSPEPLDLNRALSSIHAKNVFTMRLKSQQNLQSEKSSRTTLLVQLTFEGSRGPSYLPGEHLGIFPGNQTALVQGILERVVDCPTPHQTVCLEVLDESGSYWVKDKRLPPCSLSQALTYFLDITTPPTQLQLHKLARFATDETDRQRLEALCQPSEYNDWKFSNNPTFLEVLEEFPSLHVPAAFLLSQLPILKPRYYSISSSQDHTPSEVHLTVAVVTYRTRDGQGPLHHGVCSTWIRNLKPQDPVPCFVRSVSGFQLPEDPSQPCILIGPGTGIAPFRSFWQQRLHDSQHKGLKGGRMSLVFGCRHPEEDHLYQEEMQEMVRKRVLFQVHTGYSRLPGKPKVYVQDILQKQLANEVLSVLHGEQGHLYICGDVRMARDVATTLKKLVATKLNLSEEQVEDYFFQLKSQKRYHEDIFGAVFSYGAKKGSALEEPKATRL
Experimental: iNOS knockdown in vitro Greiss assay. To evaluate the iNOS knockdown efficacy of various materials, the following procedure was used to test % iNOS inhibition of RAW 264.7 cells stimulated with Lipopolysaccharide (LPS, Thermo Fisher Scientific, Rockford, IL) and recombinant mouse IFN-7 (Biolegend, San Diego, CA). RAW macrophages were prepared at a stock concentration of 2.5×10^6 cells/mL, and plated at 2.5×10^5 cells per well in 24-well plates. For samples testing the efficacy of 2-D surface cell culture, 200 μL of MDP hydrogels was applied to evenly coat the surface of each well before addition of cells. Each experimental condition was performed in triplicate. The following controls were included in every experiment, 1) media alone, 2) stimulated cells alone, and 3) unstimulated cells alone. To each well, stimulation media or normal media was then added based on experimental requirement. Stimulation media was prepared with LPS (final concentration 1 μg/mL) and IFN-7 (final concentration 100 U/mL). For samples testing material efficacy in solution (e.g. free L-NIL), after 6 hrs of incubation at 37° C. with 5% CO2 the desired concentration of inhibitor was added to achieve a range of concentrations between 1 μM and 1 mM.
In all cases after 24 hours from time of stimulation, samples of cell media were collected from each well after mixing media by pipetting before collection. Media samples were placed into a 96-well plate and centrifuged at 5000 rpm for 10 min. Supernatants were removed and placed in a new clear 96-well plate, and samples were immediately analyzed using a colorimetric Greiss Assay (Cayman Chemical, Ann Arbor, MI) to assess nitrite levels (Bryan & Grisham, 2007). Color was allowed to develop for 10 min following addition of Greiss reagents, and absorbance was read at 540 nm on a plate reader. Percent iNOS inhibition for each sample was calculated by first subtracting the absorbance of the media-only baseline, and then converting to a percent of maximum nitrite signal as determined by the internal standard of stimulated cells alone.

[2] = reported in Aulisa et al., 2009; cited from earlier work
iNOS [3] = experiment: Anti-nitrotyrosine immunostaining of subcutaneously injected hydrogels; assay type: in vivo, mice; settings: subcutaneous implants, 3 and 7 days post injection
Experimental: Subcutaneous experiments and histology. C57BL/6J female mice were purchased from The Jackson Laboratory at age 8-12 weeks for subcutaneous characterization experiments. Mice were housed under specific pathogen-free conditions in standard temperature and lighting conditions with free access to food and water, and experiments were conducted with approval of the Institutional Animal Care and Use Committee (IACUC) at Rice University and according to NIH guidelines. Mice were injected with 100 μL MDP hydrogels in each of four separate sites in the subcutaneous space of the dorsal flank after the skin was shaved and sterilized with alcohol. At days 3, 7, 14, and 21 the mice were euthanized and the dorsal skin around the entire implant was removed, fixed overnight in 10% neutral buffered formalin, processed and paraffin embedded, and finally sectioned at […] thickness for staining using standard Masson's trichrome or hematoxylin and eosin (H&E) procedures, as well as immunohistochemical analyses (e.g., anti-nitrotyrosine IHC, or α-SMA blood vessel analysis).
Immunohistochemistry staining was performed on hydrogel implant tissue sections to further study in vivo properties of the L-NIL-MDP compared to related cationic MDPs. Anti-nitrotyrosine immunostaining was used to assess relative levels of nitrosylation of tyrosine within and around the subcutaneously injected hydrogel implants as a marker of iNOS inhibition (FIGS. 7A-H). It is known that the formation of nitric oxide (NO) and other nitrogen oxides in vivo can lead to observable post-translation modifications of peptides and proteins (Ischiropoulos, 2003). For example, surface-exposed 3-nitrotyrosine can be used as a marker of cell or tissue inflammation and damage by reactive nitrogen and oxygen species such as NO (Ahsan, 2013). The higher the local levels of iNOS activity, the greater should be the density of nitrosylated tyrosine. Therefore, visualization of nitrotyrosine levels by targeted antibodies can serve as a general indication of in vivo iNOS activity, or in the case of the L-NIL-MDP, local iNOS inhibition.

VEGF = experiment: Serum VEGF ELISA in mice bearing B16-F0 melanoma tumors; assay type: in vivo; settings: 5 days after single 100 μL intratumoral injection
Experimental: Evaluation of in vivo VEGF reduction using murine B16-F0 melanoma tumor model. C57BL/6J male mice were purchased from The Jackson Laboratory. […] All experiments were performed with approval of IACUC at Baylor College of Medicine (BCM) and followed established protocols. B16-F0 melanoma cell line was purchased from American Type Culture Collection (ATCC) and maintained according to manufacturer instructions (DMEM high-glucose with 10% fetal bovine serum and 1% penicillin/streptomycin). C57BL/6J mice were injected subcutaneously (s.c.) with 3×10^5 B16-F0 cells in a single flank. Once tumors became palpable (day 7 post-inoculation) mice were injected intratumorally (i.t.) with either vehicle buffer control Hank's Balanced Salt Solution (HBSS), free L-NIL dissolved in HBSS at 20 mM, K2-MDP hydrogel at 1 wt. % (5.6 mM peptide), or L-NIL-MDP hydrogel at 1 wt. % (5.2 mM peptide, or approximately 20 mM L-NIL functional groups). All injections were done using 100 μL total injection volume.
Mice were euthanized 5 days following i.t. injections and tumor/blood were collected. […] VEGF quantification of undiluted serum was performed using a mouse VEGF Quantikine ELISA kit (R&D Systems, Minneapolis, MN) following manufacturer's instructions. […] Statistical differences were evaluated using Tukey's multiple comparisons test. […]

[4] = CDN drug release kinetics from hydrogels; assay type: physicochemical
Experimental: Drug release kinetics. For release kinetics studies of CDN release from various hydrogel formulations, aliquots of CDN-loaded gel (30 μL each) were deposited into 96 well Falcon® flat bottom plates (Becton Dickinson Labware, Franklin Lakes, NJ). 30 μL gel was pipetted to generate a cylindrical puck in each well for each experiment. The pipetted gels were allowed to shear recover for approximately 5-10 min before adding 200 μL of the relevant buffer to the top of the gels (1× HBSS for all MDPs, 1× DPBS for collagen, Matrigel, 1× HBSS with 0.1 M CaCl2) for alginate, etc. according to the gelation requirements of the material). The addition of buffer was defined as t=0 for the beginning of release kinetics experiments. Table 1 summarizes the material conditions and preparation methods used for various comparative CDN delivery kinetics studies.
A Nanodrop 2000C Spectrophotometer (Thermo Scientific) was used to measure drug release by UV absorbance at 259 nm for CDN ML RR-S2 CDA, using an extinction coefficient of 24,000 M^−1cm^−1 (259 nm). Absorbance measurements were obtained by removing […] from the top of the liquid buffers above the loaded gels, over time measuring the increase in absorbance. Over the course of the first 24 hours, release of CDN was measured usually every 1-2 hours and converted to total percent released, with additional measurements also made every 24 hours for up to a week to establish when equilibrium had been reached.

| Molecule | cell attachment, survival and proliferation (in words) (RAW 264.7 cells) | iNOS inhibition (in words) (iNOS [1]) | nitrotyrosine staining intensity (in words) (iNOS [3]) | CDN release profile (in words) [4] | further results |
| --- | --- | --- | --- | --- | --- |
| Nc1ncnc2c1ncn2[C@@H]1O[C@@H]2COP(O)(=S)O[C@@H]3C(O)[C@@H](COP(O)(=S)O[C@H]2[C@H]1O)O[C@H]3n1cnc2c(N)ncnc21 (stereo partly shown) [CDN, ML RR-S2 CDA] |  |  |  |  | mice surviving to the 150-day endpoint (MOC1 tumors; single intratumoral injection): 20% |
| CC(=O)N[C@@H](CCCCN)C(=O)N[C@@H](CCCCN)C(=O)N[C@@H](CO)C(=O)N[C@@H](CC(C)C)C(=O)N[C@@H](CO)C(=O)N[C@@H](CC(C)C)C(=O)N[C@@H](CO)C(=O)N[C@@H](CC(C)C)C(=O)N[C@@H](CO)C(=O)N[C@@H](CC(C)C)C(=O)N[C@@H](CO)C(=O)N[C@@H](CC(C)C)C(=O)N[C@@H](CO)C(=O)N[C@@H](CC(C)C)C(=O)N[C@@H](CCCCN)C(=O)N[C@@H](CCCCN)C(N)=O [K2-MDP, K2(SL)6K2] | highest degrees of cell attachment and proliferation | moderate | moderate |  | free L-NIL concentration giving a comparable level of iNOS inhibition (iNOS [1]; hydrogel surface culture compared with free L-NIL in solution): < 10 µM; iNOS inhibitory activity, fold less than L-NIL-MDP (iNOS [1]; in terms of comparison to free L-NIL concentration): ~10 fold; storage modulus (G′) [2]: 200-500 Pa; median survival (MOC1 tumors; single 30 μl intratumoral injection): 46 days |
| CC(=N)NCCCC[C@H](N)C(=O)O [L-NIL, N6-(1-iminoethyl)-L-lysine, reference compound] |  |  |  |  | reduction of systemic VEGF levels (in words) (VEGF): not achieved |
| Ac-EESLSLSLSLSLSLEE-NH2 [E2-MDP, E2(SL)6E2] | poorer cell survival and proliferation rates | little to no iNOS inhibition |  | nearly identical release profiles to each other |  |
| Ac-RRSLSLSLSLSLSLRR-NH2 [R2-MDP, R2(SL)6R2] | highest degrees of cell attachment and proliferation | little to no iNOS inhibition; also recorded: lowest iNOS inhibition | highest nitrotyrosine staining |  |  |
| O5(SL)6O5 [05-MDP] |  |  |  | nearly identical release profiles to each other |  |
